Experimental data as given in patent EP0197829A1, “5H-pyrido[3',4':4,5]pyrrolo[3,2-c]pyridine derivatives, process for their preparation and their antitunour activity” (SANOFI, priority 1985, dated 1986).

How the values were obtained:
[1] = system: lignée tumorale leucémie L 1210; experiment: In vitro cytotoxicity on L 1210 leukemia cell culture; type: cell-based; conditions: Mus musculus, L1210; concentration inhibiting cell proliferation by 50 p. 100, after 48 h contact; read-out: ID 50 (the source's name)
Experimental: 1) In vitro : (PAOLETTI et al., Chem. Biol. Interaction, 1979, 25, 45-58).
L'activité cytotoxique des composés de l'invention a été évaluée par des essais in vitro. Ces essais consistent à ajouter des concentrations croissantes du composé à tester à une culture cellulaire de la lignée tumorale leucémie L 1210 en phase exponentielle de croissance. Les cellules sont incubées à 37°C dans une étuve à C02 et comptées toutes les 24 heures. Le calcul de l'ID 50 (concentration du produit exprimée en micromole 1^-1 qui inhibe la prolifération cellulaire à 50 p. 100) est effectué après 48 heures de contact. Ainsi déterminées, les ID 50 des composés de l'invention sont rassemblées dans le tableau I ci-après : […]

mélanome B 16 = experiment: B 16 melanoma test in vivo; design: species or system souris hybrides BDF1; Jour médian de survie: unit not given here; conditions: for Survivants: at day J 60
Excerpt: L'activité antitumorale a été testée in vivo sur différentes tumeurs selon le protocole général suivant : Toutes les souris mâles ou femelles sont inoculées par voie intrapéritonéale au jour Jo avec une quantité déterminée de cellules tumorales viables, variable selon la tumeur.
Elles sont ensuite réparties en différents lots. Chaque lot correspondant aux animaux traités par le produit à tester à une dose déterminée est composé de lO souris. Dans ce cas, le produit à tester est dissous dans l'eau distillée et il est administré, pendant n jours (J1-Jn) variables selon le protocole choisi, par voie intrapéritonéale à raison de 0,1 ml par lO g de poids des souris traitées, les doses du produit administré étant précisées dans les tableaux ci-dessous.
Le lot "Contrôle négatif", correspondant aux animaux qui ne sont pas traités par un produit, comprend 2 √N animaux, N étant égal au nombre total de souris traitées par un produit.
Enfin, tous lés essais sont conduits parallèlement à l'étude d'un lot appelé "Contrôle positif" de 10 animaux qui est traité par une molécule active, variable selon le protocole choisi, dans les mêmes conditions que les lots traités par le produit à tester, afin de valider l'essai.
L'activité antitumorale est évaluée en considérant l'augmentation du temps de survie des animaux traités par rapport à celui des animaux du lot "Contrôle négatif" selon la formule : • Jour médian de survie des animaux traités à une T/C = dose donnée de produit x 100 • Jour médian de survie des animaux "Contrôle négatif"
Un composé est considéré comme étant actif lorsque la valeur du rapport T/C est égale ou supérieure à 125 % selon le protocole retenu. Il est toxique lorsque cette valeur est égale ou inférieure à 85 %. Le produit est également considéré comme toxique lorsque la variation pondérale, exprimée en grammes et calculée par la formule : Poids moyen du lot mesuré au jour 5 - poids moyen du même lot au jour 1, est égale ou inférieure à -4g . a) Test de la leucémie P 388 (GERAN et al., Cancer Chemother, 1972, 2, 07-57).
c) Test du mélanome B 16 (GERAN et al., Cancer Chemother, 1972, 2, 07-57).
Les essais sont effectués avec des souris hybrides BDF1 inoculées avec O,5 ml d'un homogénat de mélanome B 16 réalisé à partir de 1 g de tumeur dans 10 ml de sérum physiologique. Le composé à tester est administré pendant 9 jours (J1-J9). Le contrôle positif du test est le Cis- platine administré dans les mêmes conditions. Le nombre d'animaux survivants est évalué au jour J 60. Un composé est considéré comme étant actif lorsque le rapport T/C est supérieur ou égal à 125 %.

in vivo = experiment: in vivo; design: species or system souris; conditions: mouse, ip, 100 mg/kg
Experimental: Ainsi, l'administration à des souris hybrides CDF1 saines, en une injection unique par la voie intrapéritonéale, de doses croissantes des composés à tester (5 mg, 10 mg, 20 mg, 40 mg/kg) a permis de constater que, à ces doses, les produits étaient parfaitement tolérés puisque le taux de survivants était de 100 p. 100.
Dans les mêmes conditions, administrés à des souris BDF1 saines, les taux de survivants étaient de 100 p. 100 jusqu'à 100 mg/kg pour les dérivés 1, 3 et 9 et jusqu'à 200 mg/kg pour les dérivés 2 et 8.

SMILES | IC50 [1] [nM] | Jour médian de survie (mélanome B 16; 20 mg/kg i.p. J1-J9) | T/C % (mélanome B 16; 20 mg/kg i.p. J1-J9) [%] | Survivants (mélanome B 16; 20 mg/kg i.p. J1-J9) | Jour médian de survie (mélanome B 16; 30 mg/kg i.p. J1-J9) | T/C % (mélanome B 16; 30 mg/kg i.p. J1-J9) [%] | Survivants (mélanome B 16; 30 mg/kg i.p. J1-J9) | Jour médian de survie (mélanome B 16; 40 mg/kg i.p. J1-J9) | T/C % (mélanome B 16; 40 mg/kg i.p. J1-J9) [%] | Survivants (mélanome B 16; 40 mg/kg i.p. J1-J9) | Jour médian de survie (mélanome B 16; 50 mg/kg i.p. J1-J9) | T/C % (mélanome B 16; 50 mg/kg i.p. J1-J9) [%] | Survivants (mélanome B 16; 50 mg/kg i.p. J1-J9) | Jour médian de survie (mélanome B 16; 60 mg/kg i.p. J1-J9) | T/C % (mélanome B 16; 60 mg/kg i.p. J1-J9) [%] | Survivants (mélanome B 16; 60 mg/kg i.p. J1-J9) | survival (in vivo) [%] | Jour médian de survie (mélanome B 16; 5 mg/kg i.p. J1-J9) | T/C % (mélanome B 16; 5 mg/kg i.p. J1-J9) [%] | Survivants (mélanome B 16; 5 mg/kg i.p. J1-J9)
CCN(CC)CCCNc1ncc(C)c2c1c1cnccc1n2C [Dérivé N° 4, [(diéthylamino-3 propyl-1)amino]-1 diméthyl-4,5 5-H pyrido[3',4':4,5]pyrrolo[3,2-c]pyridine] | 130 | 28 | 99 | 0 | 43,0 | 152 | 4 | 53,0 | 188 | 5 | 39,0 | 138 | 0 | 24,0 | 85 | 0 |  |  |  | 
Cc1cnc(NCCCN(C)C)c2c1[nH]c1ccncc12 [Dérivé N° 3, [(diméthylamino-3 propyl-1)amino]-1 méthyl-4 5-H pyrido[3',4':4,5]pyrrolo[3,2-c]pyridine] |  | 29,3 | 126 | 0 |  |  |  | 9,8 | 42 | 0 |  |  |  |  |  |  | 100 | 29 | 125 | 0
